Assay results taken from the NIST ThermoML archive (doi:10.1021/je400178k).
Numbers after ± are expanded uncertainties.

Experiment: molar heat capacity at constant pressure; xn = mol fraction of the nth substance listed
Settings: 101 kPa, Liquid, Small sample (50 mg) DSC

NCCCN1CCOCC1 [N-(3-aminopropyl)morpholine] + O
molar heat capacity at constant pressure [J/K/mol]
Settings | x1 = 0.0999 | x1 = 0.2 | x1 = 0.2921 | x1 = 0.3916 | x1 = 0.4896 | x1 = 0.6011 | x1 = 0.6947 | x1 = 0.7952 | x1 = 0.8939 | x1 = 1
298.15 K | 108.4 ± 2.5 | 136.2 ± 2.8 | 160.1 ± 3 | 183.1 ± 3.3 | 203.5 ± 3.5 | 224.3 ± 3.8 | 242.5 ± 4 | 261.6 ± 4.2 | 278.9 ± 4.4 | 296.2 ± 4.6
303.15 K | 109.3 ± 2.5 | 137.2 ± 2.8 | 161.5 ± 3 | 184.9 ± 3.3 | 205.1 ± 3.5 | 226.3 ± 3.8 | 244.5 ± 4 | 263.6 ± 4.2 | 281 ± 4.4 | 298.2 ± 4.7
308.15 K | 110.3 ± 2.5 | 138.2 ± 2.8 | 162.6 ± 3 | 186.4 ± 3.3 | 206.8 ± 3.5 | 227.8 ± 3.8 | 246.1 ± 4 | 265.1 ± 4.2 | 282.5 ± 4.5 | 299.6 ± 4.7
313.15 K | 111.3 ± 2.5 | 139.5 ± 2.8 | 164 ± 3.1 | 188.1 ± 3.3 | 208.5 ± 3.6 | 229.5 ± 3.8 | 247.7 ± 4 | 266.7 ± 4.3 | 284 ± 4.5 | 301.2 ± 4.7
318.15 K | 112.3 ± 2.6 | 140.9 ± 2.8 | 165.6 ± 3.1 | 189.9 ± 3.3 | 210.3 ± 3.6 | 231.2 ± 3.8 | 249.4 ± 4.1 | 268.4 ± 4.3 | 285.8 ± 4.5 | 302.8 ± 4.7
323.15 K | 113.1 ± 2.6 | 142.3 ± 2.8 | 167.2 ± 3.1 | 191.3 ± 3.4 | 211.7 ± 3.6 | 232.9 ± 3.9 | 251.1 ± 4.1 | 270.1 ± 4.3 | 287.5 ± 4.5 | 304.5 ± 4.7
328.15 K | 114 ± 2.6 | 143.7 ± 2.9 | 168.6 ± 3.1 | 192.9 ± 3.4 | 213.2 ± 3.6 | 234.4 ± 3.9 | 252.6 ± 4.1 | 271.6 ± 4.3 | 289.1 ± 4.6 | 306.1 ± 4.8
333.15 K | 114.9 ± 2.6 | 145.3 ± 2.9 | 170.3 ± 3.1 | 194.5 ± 3.4 | 214.8 ± 3.6 | 236 ± 3.9 | 254.3 ± 4.1 | 273.4 ± 4.4 | 290.9 ± 4.6 | 307.9 ± 4.8
338.15 K | 115.9 ± 2.6 | 146.8 ± 2.9 | 171.9 ± 3.1 | 196.2 ± 3.4 | 216.5 ± 3.7 | 237.7 ± 3.9 | 256 ± 4.1 | 275 ± 4.4 | 292.5 ± 4.6 | 309.6 ± 4.8
343.15 K | 116.8 ± 2.6 | 148.2 ± 2.9 | 173.8 ± 3.2 | 197.6 ± 3.4 | 218.1 ± 3.7 | 239.5 ± 3.9 | 257.6 ± 4.2 | 276.5 ± 4.4 | 294.2 ± 4.6 | 311.3 ± 4.8
348.15 K | 117.8 ± 2.6 | 149.7 ± 2.9 | 175.5 ± 3.2 | 199.3 ± 3.5 | 219.7 ± 3.7 | 240.9 ± 4 | 259.1 ± 4.2 | 277.9 ± 4.4 | 295.6 ± 4.6 | 312.7 ± 4.9
353.15 K | 118.9 ± 2.6 | 151.1 ± 2.9 | 177.2 ± 3.2 | 201.6 ± 3.5 | 221.1 ± 3.7 | 242.1 ± 4 | 260.2 ± 4.2 | 278.7 ± 4.4 | 296.3 ± 4.6 | 313.4 ± 4.9

CN1CCNCC1 [N-methylpiperazine] + O
molar heat capacity at constant pressure [J/K/mol]
Settings | x1 = 0.099 | x1 = 0.1998 | x1 = 0.2995 | x1 = 0.4009 | x1 = 0.4983 | x1 = 0.6007 | x1 = 0.6994 | x1 = 0.7992 | x1 = 0.8992 | x1 = 1
298.15 K | 99.4 ± 2.4 | 116 ± 2.6 | 128.8 ± 2.7 | 141.4 ± 2.8 | 153.8 ± 3 | 166.6 ± 3.1 | 179 ± 3.2 | 191.4 ± 3.4 | 203.6 ± 3.5 | 213.9 ± 3.6
303.15 K | 100.6 ± 2.5 | 117.3 ± 2.6 | 130.4 ± 2.7 | 143.3 ± 2.8 | 155.6 ± 3 | 168.2 ± 3.1 | 180.5 ± 3.2 | 192.7 ± 3.4 | 204.7 ± 3.5 | 214.4 ± 3.6
308.15 K | 101.6 ± 2.5 | 118.6 ± 2.6 | 131.9 ± 2.7 | 144.8 ± 2.9 | 157.1 ± 3 | 169.7 ± 3.1 | 182 ± 3.3 | 194.3 ± 3.4 | 205.8 ± 3.5 | 215 ± 3.6
313.15 K | 102.7 ± 2.5 | 119.9 ± 2.6 | 133.4 ± 2.7 | 146.4 ± 2.9 | 158.6 ± 3 | 171.3 ± 3.1 | 183.4 ± 3.3 | 195.4 ± 3.4 | 206.8 ± 3.5 | 215.7 ± 3.6
318.15 K | 103.7 ± 2.5 | 120.8 ± 2.6 | 134.6 ± 2.8 | 147.7 ± 2.9 | 159.8 ± 3 | 172.7 ± 3.2 | 184.7 ± 3.3 | 196.7 ± 3.4 | 207.8 ± 3.6 | 216.4 ± 3.7
323.15 K | 104.6 ± 2.5 | 122.1 ± 2.6 | 136.2 ± 2.8 | 149.3 ± 2.9 | 161.4 ± 3 | 174 ± 3.2 | 185.7 ± 3.3 | 197.5 ± 3.4 | 208.5 ± 3.6 | 216.9 ± 3.7
328.15 K | 105.6 ± 2.5 | 123.5 ± 2.7 | 137.8 ± 2.8 | 151.1 ± 2.9 | 163 ± 3.1 | 175.3 ± 3.2 | 186.9 ± 3.3 | 198.5 ± 3.4 | 209.2 ± 3.6 | 217.3 ± 3.7
333.15 K | 106.1 ± 2.5 | 124.8 ± 2.7 | 139.4 ± 2.8 | 153.3 ± 3 | 165.5 ± 3.1 | 177.3 ± 3.2 | 188.2 ± 3.3 | 198.9 ± 3.5 | 209.3 ± 3.6 | 217.2 ± 3.7
338.15 K | 106.6 ± 2.5 | 126.1 ± 2.7 | 140.9 ± 2.8 | 154.4 ± 3 | 166.8 ± 3.1 | 178.4 ± 3.2 | 189 ± 3.3 | 198.5 ± 3.4 | 208.2 ± 3.6 | 215.5 ± 3.6
343.15 K | 107.3 ± 2.5 | 127.3 ± 2.7 | 142.4 ± 2.8 | 156 ± 3 | 168.2 ± 3.1 | 179.8 ± 3.2 | 190.6 ± 3.4 | 200.1 ± 3.5 | 209.2 ± 3.6 | 216.2 ± 3.7
348.15 K | 108.2 ± 2.5 | 128.5 ± 2.7 | 143.8 ± 2.9 | 157.6 ± 3 | 170 ± 3.1 | 181.6 ± 3.3 | 192.4 ± 3.4 | 202.3 ± 3.5 | 211.4 ± 3.6 | 217.6 ± 3.7
353.15 K | 109 ± 2.5 | 129.7 ± 2.7 | 145.2 ± 2.9 | 159.2 ± 3 | 171.5 ± 3.1 | 183 ± 3.3 | 193.8 ± 3.4 | 203.7 ± 3.5 | 212.7 ± 3.6 | 218 ± 3.7
